Assay results reported in article PMC6566410, “Novel Diamide-Based Benzenesulfonamides as Selective Carbonic Anhydrase IX Inhibitors Endowed with Antitumor Activity: Synthesis, Biological Evaluation and In Silico Insights” (International Journal of Molecular Sciences, 2019).

Key:
Experiment in all cases: NCI one-dose SRB assay
Type in all cases: cell-based
KM12 = settings: Homo sapiens, KM12 (Colon Cancer), 1.00E-5 Molar, read-out: Growth Percent
Outline: (§1)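 Single-dose screen, 10^−5 M, NCI-60 panel per DTP protocol; growth/viability by SRB colorimetry.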

NCI-H23 = settings: Homo sapiens, NCI-H23 (Non-Small Cell Lung Cancer), 1.00E-5 Molar, read-out: Growth Percent
Outline: as §1

A498 = settings: Homo sapiens, A498 (Renal Cancer), 1.00E-5 Molar, read-out: Growth Percent
Outline: as §1

SF-268 = settings: Homo sapiens, SF-268 (CNS Cancer), 1.00E-5 Molar, read-out: Growth Percent
Outline: as §1

HOP-62 = settings: Homo sapiens, HOP-62 (Non-Small Cell Lung Cancer), 1.00E-5 Molar, read-out: Growth Percent
Outline: as §1

PC-3 = settings: Homo sapiens, PC-3 (Prostate Cancer), 1.00E-5 Molar, read-out: Growth Percent
Outline: as §1

M14 = settings: Homo sapiens, M14 (Melanoma), 1.00E-5 Molar, read-out: Growth Percent
Outline: as §1

UACC-62 = settings: Homo sapiens, UACC-62 (Melanoma), 1.00E-5 Molar, read-out: Growth Percent
Outline: as §1

SF-295 = settings: Homo sapiens, SF-295 (CNS Cancer), 1.00E-5 Molar, read-out: Growth Percent
Outline: as §1

HCC-2998 = settings: Homo sapiens, HCC-2998 (Colon Cancer), 1.00E-5 Molar, read-out: Growth Percent
Outline: as §1

SNB-19 = settings: Homo sapiens, SNB-19 (CNS Cancer), 1.00E-5 Molar, read-out: Growth Percent
Outline: as §1

CCRF-CEM = settings: Homo sapiens, CCRF-CEM (Leukemia), 1.00E-5 Molar, read-out: Growth Percent
Outline: as §1

OVCAR-3 = settings: Homo sapiens, OVCAR-3 (Ovarian Cancer), 1.00E-5 Molar, read-out: Growth Percent
Outline: as §1

A549/ATCC = settings: Homo sapiens, A549/ATCC (Non-Small Cell Lung Cancer), 1.00E-5 Molar, read-out: Growth Percent
Outline: as §1

SK-OV-3 = settings: Homo sapiens, SK-OV-3 (Ovarian Cancer), 1.00E-5 Molar, read-out: Growth Percent
Outline: as §1

MCF7 = settings: Homo sapiens, MCF7 (Breast Cancer), 1.00E-5 Molar, read-out: Growth Percent
Outline: as §1

NCI/ADR-RES = settings: Homo sapiens, NCI/ADR-RES (Ovarian Cancer), 1.00E-5 Molar, read-out: Growth Percent
Outline: as §1

SN12C = settings: Homo sapiens, SN12C (Renal Cancer), 1.00E-5 Molar, read-out: Growth Percent
Outline: as §1

MOLT-4 = settings: Homo sapiens, MOLT-4 (Leukemia), 1.00E-5 Molar, read-out: Growth Percent
Outline: as §1

IGROV1 = settings: Homo sapiens, IGROV-1, IGROV1 (Ovarian Cancer), 1.00E-5 Molar, read-out: Growth Percent
Outline: as §1

DU-145 = settings: Homo sapiens, DU-145 (Prostate Cancer), 1.00E-5 Molar, read-out: Growth Percent
Outline: as §1

MDA-MB-231/ATCC = settings: Homo sapiens, MDA-MB-231/ATCC (Breast Cancer), 1.00E-5 Molar, read-out: Growth Percent
Outline: as §1

K-562 = settings: Homo sapiens, K562, K-562 (Leukemia), 1.00E-5 Molar, read-out: Growth Percent
Outline: as §1

CAKI-1 = settings: Homo sapiens, CAKI-1 (Renal Cancer), 1.00E-5 Molar, read-out: Growth Percent
Outline: as §1

786-0 = settings: Homo sapiens, 786-0 (Renal Cancer), 1.00E-5 Molar, read-out: Growth Percent
Outline: as §1

T-47D = settings: Homo sapiens, T47D, T-47D (Breast Cancer), 1.00E-5 Molar, read-out: Growth Percent
Outline: as §1

MDA-MB-468 = settings: Homo sapiens, MDA-MB-468 (Breast Cancer), 1.00E-5 Molar, read-out: Growth Percent
Outline: as §1

NCI-H322M = settings: Homo sapiens, NCI-H322M (Non-Small Cell Lung Cancer), 1.00E-5 Molar, read-out: Growth Percent
Outline: as §1

HCT-15 = settings: Homo sapiens, HCT-15 (Colon Cancer), 1.00E-5 Molar, read-out: Growth Percent
Outline: as §1

MALME-3M = settings: Homo sapiens, MALME-3M (Melanoma), 1.00E-5 Molar, read-out: Growth Percent
Outline: as §1

SF-539 = settings: Homo sapiens, SF-539 (CNS Cancer), 1.00E-5 Molar, read-out: Growth Percent
Outline: as §1

Compound	activity at 10 µM (KM12) [%]	activity at 10 µM (NCI-H23) [%]	activity at 10 µM (A498) [%]	activity at 10 µM (SF-268) [%]	activity at 10 µM (HOP-62) [%]	activity at 10 µM (PC-3) [%]	activity at 10 µM (M14) [%]	activity at 10 µM (UACC-62) [%]	activity at 10 µM (SF-295) [%]	activity at 10 µM (HCC-2998) [%]	activity at 10 µM (SNB-19) [%]	activity at 10 µM (CCRF-CEM) [%]	activity at 10 µM (OVCAR-3) [%]	activity at 10 µM (A549/ATCC) [%]	activity at 10 µM (SK-OV-3) [%]	activity at 10 µM (MCF7) [%]	activity at 10 µM (NCI/ADR-RES) [%]	activity at 10 µM (SN12C) [%]	activity at 10 µM (MOLT-4) [%]	activity at 10 µM (IGROV1) [%]	other results
COc1ccc(C=C(NC(=O)c2ccccc2)C(=O)Nc2ccc(S(N)(=O)=O)cc2)c(OC)c1 [Compound 5f, N-(1-(2,4-Dimethoxyphenyl)-3-oxo-3-((4-sulfamoylphenyl)amino)prop-1-en-2-yl)benzamide]	109	101	111	114	117	96.3	111	97.2	110	110	102	107	113	94.9	101	87.6	109	94.8	114	91.9	activity at 10 µM (DU-145): 111%; activity at 10 µM (MDA-MB-231/ATCC): 105%; activity at 10 µM (K-562): 116%; activity at 10 µM (CAKI-1): 92.3%; activity at 10 µM (786-0): 103%; activity at 10 µM (T-47D): 101%; activity at 10 µM (MDA-MB-468): 74.8%; activity at 10 µM (NCI-H322M): 102%; activity at 10 µM (HCT-15): 99.1%; activity at 10 µM (MALME-3M): 104%; activity at 10 µM (SF-539): 98.2%
COc1ccc(C=C(NC(=O)c2ccccc2)C(=O)Nc2ccc(S(N)(=O)=O)cc2)cc1OC [Compound 5g, N-(1-(3,4-Dimethoxyphenyl)-3-oxo-3-((4-sulfamoylphenyl)amino)prop-1-en-2-yl)benzamide]	104	102	109	104	102	103	113	94.3	102	106	100	109	107	106	97.1	106	104	97.6	107	91.6	activity at 10 µM (DU-145): 117%; activity at 10 µM (MDA-MB-231/ATCC): 105%; activity at 10 µM (K-562): 108%; activity at 10 µM (CAKI-1): 104%; activity at 10 µM (786-0): 109%; activity at 10 µM (T-47D): 100%; activity at 10 µM (MDA-MB-468): 111%; activity at 10 µM (NCI-H322M): 110%; activity at 10 µM (HCT-15): 101%; activity at 10 µM (MALME-3M): 101%; activity at 10 µM (SF-539): 92.6%
Cc1ccc(C=C(NC(=O)c2ccccc2)C(=O)Nc2ccc(S(N)(=O)=O)cc2)o1 [Compound 5h, N-(1-(5-Methylfuran-2-yl)-3-oxo-3-((4-sulfamoylphenyl)amino)prop-1-en-2-yl)benzamide]	98.4	98.9	99.8	100	95.2	90.9	114	95	94.2	104	96.4	96.9	108	90.6	96.5	97.1	92.2	98.6	88.9	81	activity at 10 µM (DU-145): 99.9%; activity at 10 µM (MDA-MB-231/ATCC): 97.4%; activity at 10 µM (K-562): 96.1%; activity at 10 µM (CAKI-1): 84.4%; activity at 10 µM (786-0): 98.7%; activity at 10 µM (T-47D): 85.8%; activity at 10 µM (MDA-MB-468): 98.7%; activity at 10 µM (NCI-H322M): 106%; activity at 10 µM (HCT-15): 92.9%; activity at 10 µM (MALME-3M): 93.2%; activity at 10 µM (SF-539): 90.2%
